These results are taken from patent EP4810052A2, “HCRHR2 SELECTIVE POLYPEPTIDES” (Gubra A/S, priority 2023, dated 2026).

Where two headings read alike, the source gives them in different places. Starred links: 1 amine or outer side, 2 acyl side, 3 side chain; linkers in the order of their positions; H or OH if unused. Non-standard residues stand in square brackets, D forms with d. Residues, ends and D or L forms follow the SMILES beside them. Groups on a side chain read outwards from the residue. *: point of attachment. C20 diacid = O=C(O)CCCCCCCCCCCCCCCCCCC(=O)*; γGlu = O=C(O)[C@H](CCC(=O)[*:2])N[*:1]; Nle = CCCC[C@H](N)C(=O)O; AEEA = NCCOCCOCC(=O)O

Assay [1] deals with T1, hCRHR2 (Homo sapiens, UniProt Q13324).
T1 sequence (Q13324 1-411): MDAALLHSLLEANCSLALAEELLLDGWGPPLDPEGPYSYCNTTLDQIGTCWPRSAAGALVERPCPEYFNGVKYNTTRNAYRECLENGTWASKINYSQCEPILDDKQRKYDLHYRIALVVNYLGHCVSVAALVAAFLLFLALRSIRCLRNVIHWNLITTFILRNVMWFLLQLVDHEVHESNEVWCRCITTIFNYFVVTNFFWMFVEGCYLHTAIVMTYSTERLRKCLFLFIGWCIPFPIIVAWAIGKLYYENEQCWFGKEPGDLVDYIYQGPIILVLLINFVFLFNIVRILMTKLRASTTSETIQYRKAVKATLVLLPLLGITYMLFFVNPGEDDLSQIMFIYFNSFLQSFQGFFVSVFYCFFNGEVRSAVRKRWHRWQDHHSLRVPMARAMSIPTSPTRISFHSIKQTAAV
The experiment in a line: HTRF cAMP assay, determination of hCRHR2 potency (peptide libraries 5 conc., purified peptides 11 conc.). It counts as cell-based. Put shortly: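 Agonist peptides are added to suspended, freshly thawed CHO-K1 cells that stably carry the human receptor. Intracellular cAMP competes with d2-cAMP for a cryptate-tagged antibody, lowering the FRET signal. A variable-slope sigmoid curve is fitted to obtain EC50.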
Background: In TR-FRET formats the signal depends on donor and acceptor labels being close together.

The target of assay [2] is T2, hCRHR1 (Homo sapiens, UniProt P34998).
T2 sequence (P34998 24-415): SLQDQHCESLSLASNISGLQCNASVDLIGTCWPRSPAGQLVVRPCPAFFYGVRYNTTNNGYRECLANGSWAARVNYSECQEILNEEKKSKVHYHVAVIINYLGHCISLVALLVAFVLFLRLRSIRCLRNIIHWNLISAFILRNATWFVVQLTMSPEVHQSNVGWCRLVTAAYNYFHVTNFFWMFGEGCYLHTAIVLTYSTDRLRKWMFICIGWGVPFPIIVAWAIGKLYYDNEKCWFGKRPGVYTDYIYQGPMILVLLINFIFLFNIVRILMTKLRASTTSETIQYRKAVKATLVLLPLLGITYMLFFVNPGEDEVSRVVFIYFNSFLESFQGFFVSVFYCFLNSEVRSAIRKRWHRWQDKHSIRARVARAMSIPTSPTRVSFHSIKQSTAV
Nature of the assay: HTRF cAMP assay, determination of hCRHR1 potency (peptide libraries 5 conc., purified peptides 11 conc.). In kind it is cell-based. Put shortly: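 CHO-K1 cells stably expressing human CRHR1, thawed from frozen stocks just before use, were stimulated in suspension with agonist peptides. cAMP was measured by HTRF competitive immunoassay (cryptate anti-cAMP antibody vs d2-cAMP).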

Take `CCCC[C@H](NC(=O)[C@@H](NC(=O)[C@H](CCC(=O)O)NC(=O)[C@H](C)NC(=O)[C@H](CC(N)=O)NC(=O)[C@@H](NC(=O)[C@H](CCCCNC(=O)COCCOCCNC(=O)COCCOCCNC(=O)CC[C@H](NC(=O)CC[C@H](NC(=O)CCCCCCCCCCCCCCCCCCC(=O)O)C(=O)O)C(=O)O)NC(=O)[C@H](C)NC(=O)[C@H](CCC(N)=O)NC(=O)[C@H](CCC(N)=O)NC(=O)[C@H](CCCNC(=N)N)NC(=O)[C@H](CC(C)C)NC(=O)[C@H](C)NC(=O)[C@H](CCC(=O)O)NC(=O)[C@H](C)NC(=O)[C@H](CCCNC(=N)N)NC(=O)[C@H](C)NC(=O)[C@H](CCC(N)=O)NC(=O)[C@H](CCC(=O)O)NC(=O)[C@H](CC(C)C)NC(=O)[C@H](CC(C)C)NC(=O)[C@@H](NC(=O)[C@H](CCC(N)=O)NC(=O)[C@H](CC(C)C)NC(=O)[C@H](CC(C)C)NC(=O)CNC(=O)[C@@H](NC(=O)[C@@H]1CCCN1C(=O)[C@@H](NC(=O)[C@H](CC(=O)O)NC(=O)[C@H](CC(C)C)NC(=O)[C@H](CO)NC(=O)[C@H](CC(C)C)NC(=O)[C@@H](NC(=O)[C@@H](N)[C@@H](C)CC)C(C)C)C(C)C)[C@@H](C)CC)[C@@H](C)CC)[C@@H](C)O)[C@@H](C)CC)C(=O)N[C@@H](C)C(=O)N[C@@H](CCC(=O)O)C(=O)N[C@H](C(N)=O)C(C)C` [compound 59] (H-IVLSLDVPIGLLQILLEQARAEALRQQAK([AEEA-AEEA-γGlu-γGlu-C20 diacid])TNAEI[Nle]AEV-NH2): the EC50 in assay [1] (library peptides, matched molecular pairs L vs Nle in position X^38, read-out: Potency hCRHR2 pEC50 (converted)) is 0.158 nM; in assay [2] (library peptides, matched molecular pairs L vs Nle in position X^38, read-out: Potency hCRHR1 pEC50 (converted)), 5.01 nM.
Turning to `CCCC[C@H](NC(=O)[C@@H](NC(=O)[C@H](CCC(=O)O)NC(=O)[C@H](C)NC(=O)[C@H](CC(N)=O)NC(=O)[C@@H](NC(=O)[C@H](CCCCNC(=O)COCCOCCNC(=O)COCCOCCNC(=O)CC[C@H](NC(=O)CC[C@H](NC(=O)CCCCCCCCCCCCCCCCCCC(=O)O)C(=O)O)C(=O)O)NC(=O)[C@H](C)NC(=O)[C@H](CCC(N)=O)NC(=O)[C@H](CCC(N)=O)NC(=O)[C@H](CCCNC(=N)N)NC(=O)[C@H](CCC(N)=O)NC(=O)[C@H](C)NC(=O)[C@H](CCCNC(=N)N)NC(=O)[C@H](C)NC(=O)[C@H](CCCNC(=N)N)NC(=O)[C@H](C)NC(=O)[C@H](CCC(N)=O)NC(=O)[C@H](CCC(=O)O)NC(=O)[C@H](CC(C)C)NC(=O)[C@H](CC(C)C)NC(=O)[C@@H](NC(=O)[C@H](CCC(N)=O)NC(=O)[C@H](CC(C)C)NC(=O)[C@H](CC(C)C)NC(=O)CNC(=O)[C@@H](NC(=O)[C@@H]1CCCN1C(=O)[C@@H](NC(=O)[C@H](CC(=O)O)NC(=O)[C@H](CC(C)C)NC(=O)[C@H](CO)NC(=O)[C@H](CC(C)C)NC(=O)[C@@H](NC(=O)[C@@H](N)[C@@H](C)CC)C(C)C)C(C)C)[C@@H](C)CC)[C@@H](C)CC)[C@@H](C)O)[C@@H](C)CC)C(=O)N[C@@H](C)C(=O)N[C@@H](CCC(=O)O)C(=O)N[C@H](C(N)=O)C(C)C` [SEQ ID NO: 47] (H-IVLSLDVPIGLLQILLEQARARAQRQQAK([AEEA-AEEA-γGlu-γGlu-C20 diacid])TNAEI[Nle]AEV-NH2), the EC50 in assay [1] (Table 3, matched molecular pairs X^38 L vs Nle, peptide library of Example 4, read-out: hCRHR2 pEC50 (converted)) was 0.2 nM; in assay [2] (Table 3, matched molecular pairs X^38 L vs Nle, peptide library of Example 4, read-out: hCRHR1 pEC50 (converted)), 63.1 nM.
